We go through five compounds from patent publication US20110217301A1, “METHODS FOR TREATING OR SCREENING FOR COMPOUNDS FOR THE TREATMENT OF SEPSIS” (priority 2009, published 2011).

Where a SMILES comes first, the peptide text is derived from it. Bridges are numbered along the chain shown (N, C = ends). [ ]: non-standard residue; d: D form. hArg = N=C(N)NCCCC[C@H](N)C(=O)O; Mpa = O=C(O)CCS

Assay [1] deals with plasma membrane glycoprotein GPIIb/IIIa (mouse) (UniProt Q9QUM0). Nature of the assay: cell-based or functional assay.
UniProt Q9QUM0, sequence (Q9QUM0 32-1033, chain 1 of 2): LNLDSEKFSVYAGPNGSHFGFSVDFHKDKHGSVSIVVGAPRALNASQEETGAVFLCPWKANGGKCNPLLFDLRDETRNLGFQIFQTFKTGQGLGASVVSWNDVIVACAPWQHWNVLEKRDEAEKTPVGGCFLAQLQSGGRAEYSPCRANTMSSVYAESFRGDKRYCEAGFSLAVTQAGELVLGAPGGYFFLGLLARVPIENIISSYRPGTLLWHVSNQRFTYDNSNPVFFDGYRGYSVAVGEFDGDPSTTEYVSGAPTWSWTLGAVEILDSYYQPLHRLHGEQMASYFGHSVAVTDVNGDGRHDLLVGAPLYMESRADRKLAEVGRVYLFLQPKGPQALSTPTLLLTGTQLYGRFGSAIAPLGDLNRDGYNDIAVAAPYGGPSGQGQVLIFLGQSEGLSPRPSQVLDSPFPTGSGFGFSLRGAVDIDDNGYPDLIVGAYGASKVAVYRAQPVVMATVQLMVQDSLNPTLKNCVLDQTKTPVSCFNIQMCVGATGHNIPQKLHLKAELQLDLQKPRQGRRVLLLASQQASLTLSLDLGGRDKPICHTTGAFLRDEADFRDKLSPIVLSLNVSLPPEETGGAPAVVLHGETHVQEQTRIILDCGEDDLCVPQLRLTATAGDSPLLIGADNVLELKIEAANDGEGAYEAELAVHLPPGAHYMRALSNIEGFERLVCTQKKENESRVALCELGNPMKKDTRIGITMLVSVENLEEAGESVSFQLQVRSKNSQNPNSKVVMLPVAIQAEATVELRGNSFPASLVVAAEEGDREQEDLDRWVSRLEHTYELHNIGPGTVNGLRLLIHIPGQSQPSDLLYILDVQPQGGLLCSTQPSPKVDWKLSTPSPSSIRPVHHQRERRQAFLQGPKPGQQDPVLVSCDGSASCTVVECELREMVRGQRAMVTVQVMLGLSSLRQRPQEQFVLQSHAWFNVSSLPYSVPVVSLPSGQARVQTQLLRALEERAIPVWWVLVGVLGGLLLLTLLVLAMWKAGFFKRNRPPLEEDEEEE
UniProt Q9QUM0, sequence (O54890 26-787, chain 2 of 2, further chain): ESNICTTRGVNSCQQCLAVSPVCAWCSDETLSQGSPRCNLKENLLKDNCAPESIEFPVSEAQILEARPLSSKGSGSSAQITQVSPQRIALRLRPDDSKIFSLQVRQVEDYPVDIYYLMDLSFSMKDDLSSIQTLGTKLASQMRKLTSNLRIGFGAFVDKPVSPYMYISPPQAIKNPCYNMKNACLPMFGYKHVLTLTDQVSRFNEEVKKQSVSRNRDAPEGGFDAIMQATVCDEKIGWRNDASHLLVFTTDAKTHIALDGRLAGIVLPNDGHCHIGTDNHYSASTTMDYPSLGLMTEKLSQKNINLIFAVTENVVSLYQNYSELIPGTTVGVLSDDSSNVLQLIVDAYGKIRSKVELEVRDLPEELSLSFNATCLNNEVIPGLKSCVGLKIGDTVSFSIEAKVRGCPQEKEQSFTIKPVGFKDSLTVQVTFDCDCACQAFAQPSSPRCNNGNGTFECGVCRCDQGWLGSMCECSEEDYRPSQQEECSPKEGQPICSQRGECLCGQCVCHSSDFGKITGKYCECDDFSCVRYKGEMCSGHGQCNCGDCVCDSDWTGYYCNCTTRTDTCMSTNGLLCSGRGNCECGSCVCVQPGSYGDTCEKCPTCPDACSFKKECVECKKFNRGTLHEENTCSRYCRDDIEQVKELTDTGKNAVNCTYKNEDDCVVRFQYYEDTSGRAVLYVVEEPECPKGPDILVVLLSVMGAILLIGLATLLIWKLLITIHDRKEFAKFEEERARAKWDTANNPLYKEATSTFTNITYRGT
Assay [2] relates to other integrins. The conditions noted are these: binds specifically to GPIIb/IIIa; cited from earlier work.
The subject of assay [3] is splenocytes. Nature of the assay: Ex vivo septic platelet-splenocyte co-incubation with anti-aggregatory platelet pretreatment; apoptosis by flow cytometry (TUNEL, pan-caspase FLICA). Type of assay: cell-based, mouse. The procedure: Non-septic wild type spleens were firmly pressed between two glass slides to express splenocytes, which were isolated by centrifugation through Ficoll-Paque™ Plus (GE Healthcare Bio-Sciences Corporation, Piscataway, N.J.). Splenocyte concentrations were measured and standardized using a manual hemocytometer and co-incubated ex vivo with platelets (from septic or healthy control mice) for 90 minutes at 37° C. and 5% CO2 in complete Dulbecco's Modified Eagle Medium (DMEM) (Invitrogen/GIBCO, Carlsbad, Calif.). For some experiments, a 0.4 μm semi-permeable membrane (Corning Inc., Corning, N.Y.) was used to physically separate platelets from splenocytes.
Splenocyte apoptosis in each experimental condition was quantified in cell suspensions by flow cytometry on a FACSCalibur™ (Becton, Dickinson and Company, San Jose, Calif.) and in tissue sections by immunohistochemistry on a Nikon Eclipse E 800 Microscope (Nikon Instruments Inc., Melville, N.Y.) with a Spot RT Slider Camera (Diagnostic Instruments Inc., Sterling Heights, Mich.).
Splenocyte suspension apoptosis was identified using FlowTACS™ (Trevigen, Gaithersburg, Md.), a TUNEL-based assay for detection of DNA fragmentation. Positive controls were generated with staurosporine (Sigma Life Sciences, St Louis, Mo.). CD4+ fractions were identified by fluorophore-labeled antibody staining (clone L3T4; eBiosciences, San Diego, Calif.). We used a Sulforhodamine FLICA-Apoptosis Detection Kit Pan-Caspase Assay (Immunochemistry Technologies, Bloomington, Minn.) to measure activated caspases in apoptotic cells. Immunohistochemistry was performed on frozen heart, lung, kidney, spleen, and liver sections (4-7 μm) stained with the TUNEL-based TACK® 2 TdT In Situ Apoptosis Detection Kit (Trevigen, Gaithersburg, Md., USA) according to the manufacturer's instructions.

The conditions of assay [4]: adults admitted to the ICU already receiving aspirin, clopidogrel or a combination; cited from earlier work.
Assay [5] relates to granzyme B. Nature of the assay: Flow cytometry of intracellular granzyme B in CD61+ platelets. Type of assay: cell-based, mouse. The note with it: additional platelet activation with TNFα; data not shown. The source says:
To determine if granzyme B mRNA up-regulation translates to increased granzyme B protein expression, additional citrated whole blood was collected from septic and control mice. It was fixed with 1% paraformaldehyde, permeabilized, and intracellularly stained with anti-granzyme B (clone 16G6; eBioscience, San Diego, Calif., USA) using appropriate isotype and negative (unlabeled) controls. Flow cytometry data were generated on a FACSCalibur™ System (BD Biosciences, San Jose, Calif., USA), gating on CD61^+ (clone 2C9.G2; BD) platelets, and analyzed using FlowJo 7.2 (Tree Star, Inc., Ashland, Oreg., USA).
A general note: A flow cytometer gives signals particle by particle.

Assay [6] deals with CD4+ splenocytes. Nature of the assay: Co-incubation of CD4+ splenocytes with platelets with or without recombinant TNFα pre-treatment; apoptosis by TiterTACS. Type of assay: cell-based, mouse. The procedure: CD4^+ splenocytes from healthy control mice were co-incubated with platelets isolated from control or septic mice for 90 minutes at 37° C. and 5% CO2 with or without platelet pre-treatment with 10 ng/mL of recombinant TNFα (Sigma-Aldrich) for 90 minutes. Splenocyte apoptosis was evaluated by TiterTACS™ (Trevigen, Gaithersburg, Md., USA), a quantitative colorimetric assay for in situ detection of DNA fragmentation. All samples were run in triplicate according to the manufacturer's protocol with data normalized to negative and nuclease-induced positive controls.
Our finding of granzyme B in platelets from septic mice and humans caused us to hypothesize that platelets could be lymphotoxic in this scenario. To study this question, platelets from mice 18 hours status post CLP were co-incubated with CD4^+ splenocytes isolated from healthy control mice. Platelets from septic wild-type (i.e. C57BL6) mice induced marked splenocyte apoptosis compared to platelets from sham wild-type mice (rate of apoptosis=26.0±3.4 versus 3.9±3.4%; p=0.007). (FIG. 4) This co-incubation experiment was repeated with platelets from septic granzyme B null (−/−) mice (i.e. B6.129S2-Gzmb^tmlLey). In this case, there was a complete lack of induced splenocyte apoptosis by septic platelets. […] (FIG. 4)

Setting [7] is: eptifibatide-exposed (4 μg/mL, 15 minutes) septic wild type platelets with healthy splenocytes vs non-exposed septic platelets, mean±SEM.
The mark [8] stands for this setting: platelets pre-treated, compared with untreated septic platelets.

On to eptifibatide (peptide), for which, in assay [1], the reduction of septic platelet-induced apoptosis in the CD4+ splenocyte fraction, TUNEL+ and pan-caspase+ by flow cytometry is 85 % reduction; the reduction of septic platelet-induced splenocyte apoptosis (overall), TUNEL+ and pan-caspase+ by flow cytometry was 66.5 % reduction.

Turning to `N=C(N)NCCCC[C@@H]1NC(=O)CCSSC[C@@H](C(N)=O)NC(=O)[C@@H]2CCCN2C(=O)[C@H](Cc2c[nH]c3ccccc23)NC(=O)[C@H](CC(=O)O)NC(=O)CNC1=O` [eptifibatide] ([Mpa][hArg]GDWPC-NH2; disulfide 1-7), the “affinity for other integrins” value in assay [2] was “low affinity”. Further, in assay [3] (setting [7]), the “reduction of splenocyte apoptosis in the CD4+ fraction” value was 85±20.7 % reduction and the “reduction of splenocyte apoptosis overall” value stood at 66.5±10.6 % reduction. In assay [3] (setting [8]), the “septic platelet-induced CD4+ splenocyte apoptosis (TUNEL+ and pan-Caspase+), result in words” value was “significant reduction”; the “septic platelet-induced splenocyte apoptosis overall (TUNEL+ and pan-Caspase+), result in words” value is given as “significant reduction”.

`CC(=O)Oc1ccccc1C(=O)O` [aspirin]: in assay [4], the “levels of MODS” value is “decreased levels of MODS” and the mortality result is “decreased mortality”.

On to `COC(=O)[C@H](c1ccccc1Cl)N1CCc2sccc2C1` [clopidogrel], for which, in assay [4], the “levels of MODS” value is “decreased levels of MODS” and the mortality entry was “decreased mortality”.

Take TNFα: the “intracellular granzyme B in platelets, result in words” value in assay [5] is on record as “did not alter”. Besides, the “lymphotoxic capacity of platelets, result in words” value in assay [6] (further platelet activation with recombinant TNFα) is recorded as “did not alter”. Moreover, the “rate of apoptosis (lymphotoxicity) of CD4+ splenocytes” value in assay [6] (wild-type platelets further activated by TNFα (10 ng/mL, 90 minutes), p=0.88 vs non-activated control platelets) came to 4.5±1.3%.
